CC1(C)C[C@@H]1C(N)=O
Conditions | solubility (mole fraction)
in chloroform, 286.26 K | 0.0357
in chloroform, 293.65 K | 0.0395
in chloroform, 296.64 K | 0.0429
in chloroform, 300.25 K | 0.0484
in chloroform, 303.47 K | 0.0529
in chloroform, 308.04 K | 0.0596
in chloroform, 310.96 K | 0.0665
in chloroform, 314.18 K | 0.0699
in chloroform, 317.45 K | 0.0789
in chloroform, 321.27 K | 0.0902
in dichloromethane, 288.72 K | 0.0152
in dichloromethane, 292.45 K | 0.0177
in dichloromethane, 296.11 K | 0.0205
in dichloromethane, 298.74 K | 0.0233
in dichloromethane, 300.83 K | 0.0248
in dichloromethane, 302.2 K | 0.0268
in dichloromethane, 304.6 K | 0.0301
in dichloromethane, 306.27 K | 0.0321
in dichloromethane, 309.29 K | 0.0367
in ethanol, 290.04 K | 0.089
in ethanol, 293.28 K | 0.0945
in ethanol, 296.81 K | 0.101
in ethanol, 299.25 K | 0.107
in ethanol, 302.71 K | 0.116
in ethanol, 306.04 K | 0.123
in ethanol, 309.67 K | 0.134
in ethanol, 313.53 K | 0.148
in ethanol, 318.09 K | 0.163
in ethyl acetate, 288.96 K | 0.0169
in ethyl acetate, 290 K | 0.0205
in ethyl acetate, 294.53 K | 0.0279
in ethyl acetate, 301.16 K | 0.0357
in ethyl acetate, 305.88 K | 0.0409
in ethyl acetate, 311 K | 0.0483
in ethyl acetate, 316.3 K | 0.0557
in ethyl acetate, 323.65 K | 0.0787
in ethyl acetate, 328.41 K | 0.0912
in toluene, 288.7 K | 0.00221
in toluene, 302.9 K | 0.004
in toluene, 311.23 K | 0.00599
in toluene, 318.11 K | 0.00858
in toluene, 324.07 K | 0.011
in toluene, 328.47 K | 0.0137
in toluene, 332.43 K | 0.016
in toluene, 338.07 K | 0.0219
in toluene, 342.25 K | 0.0259
in toluene, 348.06 K | 0.035
in water, 294.8 K | 0.00374
in water, 308.15 K | 0.00499
in water, 314.67 K | 0.00583
in water, 327.39 K | 0.00716
in water, 331.7 K | 0.00917
in water, 336.08 K | 0.0115
in water, 340.86 K | 0.0146
in water, 345.84 K | 0.0177
in water, 353.93 K | 0.026
